Results taken from ChEMBL document CHEMBL1909046, “DrugMatrix in vitro pharmacology data”.

Key:
[1] = DRUGMATRIX: Calcium Channel Type L, Benzothiazepine radioligand binding (ligand: [3H] Diltiazem); type: cell membranes, Rattus norvegicus, Wistar, Brain, Membrane; conditions: Not Active = under 50% inhibition at 10 µM
[2] = biological target: Sodium-dependent dopamine transporter (Homo sapiens, UniProt Q01959); assay: DRUGMATRIX: Dopamine Transporter radioligand binding (ligand: [125I] RTI-55); type: cell membranes, CHO-K1, Membrane; conditions: Not Active = under 50% inhibition at 10 µM; for Ki: read-out: Ki
[3] = DRUGMATRIX: GABAA, Muscimol, Central radioligand binding (ligand: [3H] Muscimol); type: cell membranes, Rattus norvegicus, Wistar, Brain, Membrane; conditions: Not Active = under 50% inhibition at 10 µM
[4] = DRUGMATRIX: Glutamate, NMDA, Phencyclidine radioligand binding (ligand: [3H] TCP); type: cell membranes, Rattus norvegicus, Wistar, Cerebral cortex, Membrane; conditions: Not Active = under 50% inhibition at 10 µM
[5] = biological target: T1, Receptor-type tyrosine-protein phosphatase C (Homo sapiens, UniProt P08575); parameters: species or system Escherichia coli;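 also: inhibition of CD45 enzyme activity measured using DiFMUP as substrate; in other assays of this panel Not Active means under 50% inhibition at 10 µM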
T1 sequence (P08575 whole entry): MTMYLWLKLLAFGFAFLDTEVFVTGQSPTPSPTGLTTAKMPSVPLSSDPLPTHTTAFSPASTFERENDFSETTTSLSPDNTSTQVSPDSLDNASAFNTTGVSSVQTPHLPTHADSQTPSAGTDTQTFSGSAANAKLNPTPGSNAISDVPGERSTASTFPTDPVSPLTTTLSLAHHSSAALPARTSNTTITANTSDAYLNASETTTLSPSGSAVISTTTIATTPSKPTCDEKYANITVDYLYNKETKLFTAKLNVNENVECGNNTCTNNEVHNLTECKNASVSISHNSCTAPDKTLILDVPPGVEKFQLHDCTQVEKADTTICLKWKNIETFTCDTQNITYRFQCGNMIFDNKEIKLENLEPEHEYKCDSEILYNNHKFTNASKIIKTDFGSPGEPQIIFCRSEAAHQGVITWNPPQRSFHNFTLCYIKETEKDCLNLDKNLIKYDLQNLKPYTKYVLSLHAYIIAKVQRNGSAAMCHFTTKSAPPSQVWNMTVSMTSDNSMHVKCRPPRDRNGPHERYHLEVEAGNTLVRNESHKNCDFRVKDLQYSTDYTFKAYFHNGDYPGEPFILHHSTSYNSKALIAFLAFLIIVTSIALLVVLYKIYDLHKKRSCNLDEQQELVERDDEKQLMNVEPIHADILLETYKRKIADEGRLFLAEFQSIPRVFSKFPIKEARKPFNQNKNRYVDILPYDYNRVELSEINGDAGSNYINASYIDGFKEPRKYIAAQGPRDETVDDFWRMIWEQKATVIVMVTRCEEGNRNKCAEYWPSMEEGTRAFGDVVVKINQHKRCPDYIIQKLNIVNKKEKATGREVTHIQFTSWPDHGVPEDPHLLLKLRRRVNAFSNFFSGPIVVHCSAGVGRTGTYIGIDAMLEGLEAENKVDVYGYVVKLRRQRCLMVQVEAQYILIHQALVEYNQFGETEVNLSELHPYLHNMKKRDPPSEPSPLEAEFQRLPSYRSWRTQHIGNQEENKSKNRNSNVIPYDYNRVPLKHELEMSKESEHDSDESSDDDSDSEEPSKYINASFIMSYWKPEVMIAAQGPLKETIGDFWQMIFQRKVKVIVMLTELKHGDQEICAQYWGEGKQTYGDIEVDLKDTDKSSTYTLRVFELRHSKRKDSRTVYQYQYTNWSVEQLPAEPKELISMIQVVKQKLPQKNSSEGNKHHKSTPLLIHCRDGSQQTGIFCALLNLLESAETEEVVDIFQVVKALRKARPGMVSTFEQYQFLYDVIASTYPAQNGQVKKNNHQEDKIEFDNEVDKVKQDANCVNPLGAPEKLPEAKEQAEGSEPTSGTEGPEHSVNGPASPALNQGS

Adenosine receptor A2a = Adenosine receptor A2a (Homo sapiens, UniProt P29274); assay: DRUGMATRIX: Adenosine A2A radioligand binding (ligand: […]); type: cell membranes, Membrane; conditions: hek293; Not Active = under 50% inhibition at 10 µM
Cytochrome P450 2C9 = Cytochrome P450 2C9 (Homo sapiens, UniProt P11712); conditions: bti-tn-5b1-4; also: in other assays of this panel Not Active means under 50% inhibition at 10 µM
Sequence of Cytochrome P450 2C9 (P11712 whole entry): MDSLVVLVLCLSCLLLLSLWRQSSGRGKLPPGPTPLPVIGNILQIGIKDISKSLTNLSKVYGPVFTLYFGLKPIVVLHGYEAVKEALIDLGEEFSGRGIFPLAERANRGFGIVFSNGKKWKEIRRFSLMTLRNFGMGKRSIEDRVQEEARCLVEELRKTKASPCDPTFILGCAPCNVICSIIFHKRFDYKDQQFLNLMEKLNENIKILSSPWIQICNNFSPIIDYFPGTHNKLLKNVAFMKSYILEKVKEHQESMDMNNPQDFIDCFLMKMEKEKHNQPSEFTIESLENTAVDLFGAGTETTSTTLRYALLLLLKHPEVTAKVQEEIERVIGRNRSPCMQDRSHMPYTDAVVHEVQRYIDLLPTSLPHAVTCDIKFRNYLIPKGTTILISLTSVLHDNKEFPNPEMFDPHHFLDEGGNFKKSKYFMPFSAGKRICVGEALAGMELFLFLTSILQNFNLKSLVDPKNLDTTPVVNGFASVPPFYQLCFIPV

Sequence of Adenosine receptor A2a (P29274 whole entry): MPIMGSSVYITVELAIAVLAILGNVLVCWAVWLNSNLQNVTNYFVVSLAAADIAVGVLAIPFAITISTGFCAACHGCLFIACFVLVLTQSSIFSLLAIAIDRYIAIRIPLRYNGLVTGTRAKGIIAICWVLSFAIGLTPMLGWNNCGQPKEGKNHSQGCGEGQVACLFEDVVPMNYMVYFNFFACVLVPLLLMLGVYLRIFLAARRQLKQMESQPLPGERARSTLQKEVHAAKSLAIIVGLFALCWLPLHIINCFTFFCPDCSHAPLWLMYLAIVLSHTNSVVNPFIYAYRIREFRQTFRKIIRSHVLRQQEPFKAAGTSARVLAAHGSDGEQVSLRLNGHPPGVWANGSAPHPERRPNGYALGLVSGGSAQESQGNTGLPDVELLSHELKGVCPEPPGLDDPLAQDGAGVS
Sequence of Sodium-dependent dopamine transporter (Q01959 whole entry): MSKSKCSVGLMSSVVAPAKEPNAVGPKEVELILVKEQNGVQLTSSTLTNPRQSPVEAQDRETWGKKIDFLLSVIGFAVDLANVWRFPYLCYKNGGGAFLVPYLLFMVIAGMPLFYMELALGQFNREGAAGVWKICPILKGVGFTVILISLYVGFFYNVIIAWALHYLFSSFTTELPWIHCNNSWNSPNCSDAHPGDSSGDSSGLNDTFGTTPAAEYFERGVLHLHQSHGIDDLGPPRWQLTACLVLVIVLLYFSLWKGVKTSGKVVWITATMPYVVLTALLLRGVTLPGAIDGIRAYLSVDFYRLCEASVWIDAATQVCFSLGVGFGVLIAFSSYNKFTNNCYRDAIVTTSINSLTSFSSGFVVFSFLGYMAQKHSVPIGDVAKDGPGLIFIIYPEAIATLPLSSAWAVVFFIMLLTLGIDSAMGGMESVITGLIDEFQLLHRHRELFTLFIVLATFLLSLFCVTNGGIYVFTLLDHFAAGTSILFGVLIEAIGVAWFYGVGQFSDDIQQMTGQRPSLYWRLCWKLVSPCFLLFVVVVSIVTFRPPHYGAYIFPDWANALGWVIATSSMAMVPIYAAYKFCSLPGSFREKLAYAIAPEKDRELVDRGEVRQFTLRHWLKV

| SMILES | IC50 ([1]; read-out: IC50) | Ki ([1]; read-out: Ki) | IC50 ([2]; read-out: IC50) | Ki [2] | IC50 [3] | Ki [3] | IC50 [4] | Ki [4] | IC50 [5] | IC50 (Adenosine receptor A2a) | IC50 (Cytochrome P450 2C9) | Ki (Cytochrome P450 2C9) | IC50 [1] | Ki [1] | IC50 ([2]; cho-k1) | Ki [5] |
| --- | --- | --- | --- | --- | --- | --- | --- | --- | --- | --- | --- | --- | --- | --- | --- | --- |
| CC(C)(C)NC(=O)[C@@H]1C[C@@H]2CCCC[C@@H]2CN1C[C@@H](O)[C@H](Cc1ccccc1)NC(=O)[C@H](CC(N)=O)NC(=O)c1ccc2ccccc2n1 | 10.9 µM | 9.69 µM | 35.1 µM | 27.9 µM | Not Active | Not Active | Not Active | Not Active | Not Active | Not Active | Not Active | Not Active |  |  |  |  |
| CC(=O)[C@@]1(O)CC[C@H]2[C@@H]3C[C@H](C)C4=CC(=O)CC[C@]4(C)[C@H]3CC[C@@]21C |  |  |  |  | Not Active | Not Active | Not Active | Not Active | Not Active | Not Active | Not Active | Not Active | Not Active | Not Active | Not Active |  |
| N[C@@H](Cc1ccc(N(CCCl)CCCl)cc1)C(=O)O |  |  |  |  | Not Active | Not Active | Not Active | Not Active | Not Active | Not Active | Not Active | Not Active | Not Active | Not Active | Not Active |  |
| CCCCc1oc2ccccc2c1C(=O)c1cc(I)c(OCCN(CC)CC)c(I)c1 [AMIODARONE] |  |  |  |  |  |  |  |  | Not Active | Not Active |  |  |  |  |  |  |
| OCCN(CCO)c1nc(N2CCCCC2)c2nc(N(CCO)CCO)nc(N3CCCCC3)c2n1 [DIPYRIDAMOLE] |  |  |  |  | Not Active | Not Active | Not Active | Not Active | Not Active | Not Active |  |  | Not Active | Not Active | Not Active |  |
| Cc1oncc1C(=O)Nc1ccc(C(F)(F)F)cc1 [LEFLUNOMIDE] |  |  | 2.88 µM | 2.29 µM | Not Active | Not Active | Not Active | Not Active | Not Active | Not Active | Not Active | Not Active | Not Active | Not Active |  |  |
| c1ccc([C@H]2CN3CCSC3=N2)cc1 [LEVAMISOLE] |  |  |  |  | Not Active | Not Active | Not Active | Not Active | Not Active | Not Active | Not Active | Not Active | Not Active | Not Active | Not Active |  |
| N[C@@H](Cc1ccc(O)c(O)c1)C(=O)O [LEVODOPA] |  |  |  |  | Not Active | Not Active | Not Active | Not Active | Not Active | Not Active | Not Active | Not Active | Not Active | Not Active | Not Active |  |
| N[C@@H](Cc1cc(I)c(Oc2ccc(O)c(I)c2)c(I)c1)C(=O)O [LIOTHYRONINE] |  |  |  |  |  |  |  |  | Not Active | Not Active |  |  |  |  | Not Active |  |
| O=NN(CCCl)C(=O)NC1CCCCC1 [LOMUSTINE] |  |  |  |  | Not Active | Not Active | Not Active | Not Active | Not Active | Not Active | Not Active | Not Active | Not Active | Not Active | Not Active |  |
| CCOC(=O)N1CCC(=C2c3ccc(Cl)cc3CCc3cccnc32)CC1 [LORATADINE] |  |  |  |  | Not Active | Not Active | Not Active | Not Active | Not Active | Not Active |  |  | Not Active | Not Active | Not Active |  |
| Cn1ccnc1S [METHIMAZOLE] |  |  |  |  | Not Active | Not Active | Not Active | Not Active | Not Active | Not Active | Not Active | Not Active | Not Active | Not Active | Not Active |  |
| CC[C@@H](CO)NC(=O)[C@@H]1C=C2c3cccc4[nH]cc(c34)C[C@H]2N(C)C1 [METHYLERGONOVINE] |  |  |  |  | Not Active | Not Active | Not Active | Not Active | Not Active | Not Active | Not Active | Not Active | Not Active | Not Active | Not Active |  |
| COc1nc(C)nc(Cl)c1NC1=NCCN1 [MOXONIDINE] |  |  |  |  | Not Active | Not Active | Not Active | Not Active | Not Active | Not Active | Not Active | Not Active | Not Active | Not Active | Not Active |  |
| COc1c(C)c2c(c(O)c1C/C=C(\C)CCC(=O)O)C(=O)OC2 [MYCOPHENOLIC ACID] |  |  |  |  | Not Active | Not Active | Not Active | Not Active | Not Active | Not Active | Not Active | Not Active | Not Active | Not Active | Not Active |  |
| O=c1ncn2nc(Sc3ccc(F)cc3F)ccc2c1-c1c(Cl)cccc1Cl [NEFLAMAPIMOD] |  |  | 8.1 µM | 6.43 µM | Not Active | Not Active | Not Active | Not Active | Not Active | Not Active | Not Active | Not Active | Not Active | Not Active |  |  |
| CN1CCN(CCCN2c3ccccc3Sc3ccc(Cl)cc32)CC1 [PROCHLORPERAZINE] |  |  |  |  |  |  |  |  | Not Active | Not Active | Not Active | Not Active |  |  |  |  |
| CO[C@H]1/C=C/O[C@@]2(C)Oc3c(C)c(O)c4c(O)c(c(/C=N/N5CCN(C)CC5)c(O)c4c3C2=O)NC(=O)/C(C)=C\C=C\[C@H](C)[C@H](O)[C@@H](C)[C@@H](O)[C@@H](C)[C@H](OC(C)=O)[C@@H]1C [RIFAMPIN] |  |  |  |  | Not Active | Not Active | Not Active | Not Active | Not Active | Not Active |  |  | Not Active | Not Active | Not Active |  |
| Nc1nc2ccc(OC(F)(F)F)cc2s1 [RILUZOLE] |  |  |  |  | Not Active | Not Active | Not Active | Not Active |  | Not Active |  |  | Not Active | Not Active | Not Active | Not Active |
| Cc1nc2n(c(=O)c1CCN1CCC(c3noc4cc(F)ccc34)CC1)CCCC2 [RISPERIDONE] |  |  |  |  |  |  |  |  | Not Active | Not Active | Not Active | Not Active |  |  | Not Active |  |
| CC/C(=C(\c1ccccc1)c1ccc(OCCN(C)C)cc1)c1ccccc1 [TAMOXIFEN] |  |  | 1.84 µM | 1.46 µM |  |  |  |  | Not Active |  |  |  |  |  |  |  |
| CC(C)N1CCN(c2ccc(OCC3COC(Cn4cncn4)(c4ccc(Cl)cc4Cl)O3)cc2)CC1 (stereo unspecified) [TERCONAZOLE] | 3.01 µM | 2.67 µM |  |  | Not Active | Not Active | Not Active | Not Active | Not Active | Not Active | Not Active | Not Active |  |  |  |  |
| NC[C@H]1CC[C@H](C(=O)O)CC1 [TRANEXAMIC ACID] |  |  |  |  | Not Active | Not Active | Not Active | Not Active | Not Active | Not Active |  |  | Not Active | Not Active | Not Active |  |
| Cc1c(C)c2c(c(C)c1O)CCC(C)(COc1ccc(CC3SC(=O)NC3=O)cc1)O2 (stereo unspecified) [TROGLITAZONE] |  |  |  |  | Not Active | Not Active | Not Active | Not Active | Not Active | Not Active |  |  | Not Active | Not Active | Not Active |  |
